Measurements: US8932597B2 (priority 2008, dated 2015)

Tested on: anti-M2 human monoclonal antibody Z3G1
Format: binding

Substance: 1276 (MSLQTEVETPIRNEWGCRCN; epitope peptide) [compound 1276]
- Signal (peptides that bind to Z3G1): 2792

Substance: 1299 (MSLLTEVATPIRNEWGCRCN; epitope peptide) [compound 1299]
- Signal (peptides that bind to Z3G1): 2633

Substance: 1558 (SCLCECGSLLCEV; epitope peptide) [compound 1558]
- Signal (peptides that show specific binding to Z3G1): 1747

Substance: 1312 (MSLLTEVEWPIRNEWGCRCN; epitope peptide) [compound 1312]
- Signal (peptides that bind to Z3G1): 2541

Substance: 1322 (MCLLTEVECPIRNE; epitope peptide) [compound 1322]
- Signal (peptides that bind to Z3G1): 2421

Substance: 1584 (SLLIEVETPIRNEWGCRCNDSSD; epitope peptide) [compound 1584]
- Signal (peptides that show specific binding to Z3G1): 1899

Substance: 1555 (SLLTCVGSLLCEV; epitope peptide) [compound 1555]
- Signal (peptides that show specific binding to Z3G1): 2264

Substance: 1556 (CSCLCEVGSLLCEV; epitope peptide) [compound 1556]
- Signal (peptides that show specific binding to Z3G1): 1583

Substance: 1271 (MSLFTEVETPIRNEWGCRCN; epitope peptide) [compound 1271]
- Signal (peptides that bind to Z3G1): 2115

Substance: 1397 (CLLTEVCTPIRNEWG; epitope peptide) [compound 1397]
- Signal (peptides that bind to Z3G1): 1634

Substance: 1563 (DLLTEVETPIRNEWGCRCNDSSD; epitope peptide) [compound 1563]
- Signal (peptides that show specific binding to Z3G1): 2320

Substance: 1480 (CEVETPIRNELLTEVETPICEVETPIRNE; epitope peptide; MISC_FEATURE (1)..(1): C is an attachment site for a CLIP; MISC_FEATURE (10)..(10): E is an attachment site for a CLIP; MISC_FEATURE (11)..(11): L is an attachment site for a CLIP; MISC_FEATURE (29)..(29): E is an attachment site for a CLIP) [compound 1480]
- Signal (peptides that bind to Z3G1): 1394

Substance: 1367 (SLLCEVCTPIRNE; epitope peptide) [compound 1367]
- Signal (peptides that bind to Z3G1): 2283

Substance: 1310 (MSLLTEVWTPIRNEWGCRCN; epitope peptide) [compound 1310]
- Signal (peptides that bind to Z3G1): 2546

Substance: 1462 (CETPIRNEWGLLTEVETPICTEVETPIRN; epitope peptide; MISC_FEATURE (1)..(1): C is an attachment site for a CLIP; MISC_FEATURE (10)..(10): G is an attachment site for a CLIP; MISC_FEATURE (11)..(11): L is an attachment site for a CLIP; MISC_FEATURE (29)..(29): N is an attachment site for a CLIP) [compound 1462]
- Signal (peptides that bind to Z3G1): 1710

Substance: 1360 (CLLCEVETPIRNE; epitope peptide) [compound 1360]
- Signal (peptides that bind to Z3G1): 2314

Substance: 1553 (CLLTEVGSLLCEV; epitope peptide) [compound 1553]
- Signal (peptides that show specific binding to Z3G1): 2168

Substance: 1284 (MSLLHEVETPIRNEWGCRCN; epitope peptide) [compound 1284]
- Signal (peptides that bind to Z3G1): 2691

Substance: 1335 (MCLLTEVGMSCLTEV; epitope peptide) [compound 1335]
- Signal (peptides that bind to Z3G1): 1869

Substance: 1329 (MSLLCEVETCIRNE; epitope peptide) [compound 1329]
- Signal (peptides that bind to Z3G1): 2589

Substance: 1282 (MSLLFEVETPIRNEWGCRCN; epitope peptide) [compound 1282]
- Signal (peptides that bind to Z3G1): 2581

Substance: 1257 (MKLLTEVETPIRNEWGCRCN; epitope peptide) [compound 1257]
- Signal (peptides that bind to Z3G1): 2629

Substance: 1344 (MCLCTCVGMSLLCEV; epitope peptide) [compound 1344]
- Signal (peptides that bind to Z3G1): 2431

Substance: 1327 (MSLLCEVETPICNE; epitope peptide) [compound 1327]
- Signal (peptides that bind to Z3G1): 2704

Substance: 1261 (MPLLTEVETPIRNEWGCRCN; epitope peptide) [compound 1261]
- Signal (peptides that bind to Z3G1): 2521

Substance: 1590 (SLLWEVETPIRNEWGCRCNDSSD; epitope peptide) [compound 1590]
- Signal (peptides that show specific binding to Z3G1): 2221
